What was measured:
[1] = target: T1, G-protein coupled bile acid receptor 1 (Homo sapiens, UniProt Q8TDU6); assay: TGR5/CRE Luciferase Assay: In the following tables TGR5 activation by compounds and subsequent increase in intracellular cAMP were evaluated using a luciferase reporter gene assay. Human embryonic kidney (HEK) 293 cells were transiently co-transfected with pCMV tag4b-TGR5 h (to follow hTGR5 activation) or pCMV AC6-TGR5m (to follow mTGR5 activation) expression plasmids and the pCRE TA-Luciferase reporter plasmid using the JET PEI reagent (Polyplus transfection). Transfected cells were seeded in 96-well plates and incubated overnight with the test compounds at increasing concentrations tested in duplicate. Lithocolic acid (LCA) at 10 μM was used as a positive reference compound. The cAMP-dependent luciferase expression was followed using the BrightGlo reagent according to the manufacturer (Promega) instructions. Luminescence was read with a Mithras plate reader (Berthold). […] Concentration-response curves were fitted by a nonlinear regression analysis to a 4 parameter logistic equation.; format: cell-based
T1 sequence (Q8TDU6 whole entry): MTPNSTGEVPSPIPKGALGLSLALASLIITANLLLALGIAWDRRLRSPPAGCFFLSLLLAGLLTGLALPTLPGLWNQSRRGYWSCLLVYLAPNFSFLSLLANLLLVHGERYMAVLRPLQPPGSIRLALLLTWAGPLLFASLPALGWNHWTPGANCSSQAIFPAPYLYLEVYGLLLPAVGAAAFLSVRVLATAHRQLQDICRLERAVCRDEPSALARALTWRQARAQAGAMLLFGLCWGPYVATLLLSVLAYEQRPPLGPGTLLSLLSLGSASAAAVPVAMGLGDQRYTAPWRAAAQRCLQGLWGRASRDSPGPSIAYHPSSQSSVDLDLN

[2] = target: T2, G-protein coupled bile acid receptor 1 (Mus musculus, UniProt Q80SS6); assay: TGR5/CRE Luciferase Assay: In the following tables TGR5 activation by compounds and subsequent increase in intracellular cAMP were evaluated using a luciferase reporter gene assay. Human embryonic kidney (HEK) 293 cells were transiently co-transfected with pCMV tag4b-TGR5 h (to follow hTGR5 activation) or pCMV AC6-TGR5m (to follow mTGR5 activation) expression plasmids and the pCRE TA-Luciferase reporter plasmid using the JET PEI reagent (Polyplus transfection). Transfected cells were seeded in 96-well plates and incubated overnight with the test compounds at increasing concentrations tested in duplicate. Lithocolic acid (LCA) at 10 μM was used as a positive reference compound. The cAMP-dependent luciferase expression was followed using the BrightGlo reagent according to the manufacturer (Promega) instructions. Luminescence was read with a Mithras plate reader (Berthold). Data were expressed as percentage of the 10 μM LCA value and EC50 values were calculated using XL fit 5 software or GraphPad Prism 5. Concentration-response curves were fitted by a nonlinear regression analysis to a 4 parameter logistic equation.; format: cell-based
T2 sequence (Q80SS6 whole entry): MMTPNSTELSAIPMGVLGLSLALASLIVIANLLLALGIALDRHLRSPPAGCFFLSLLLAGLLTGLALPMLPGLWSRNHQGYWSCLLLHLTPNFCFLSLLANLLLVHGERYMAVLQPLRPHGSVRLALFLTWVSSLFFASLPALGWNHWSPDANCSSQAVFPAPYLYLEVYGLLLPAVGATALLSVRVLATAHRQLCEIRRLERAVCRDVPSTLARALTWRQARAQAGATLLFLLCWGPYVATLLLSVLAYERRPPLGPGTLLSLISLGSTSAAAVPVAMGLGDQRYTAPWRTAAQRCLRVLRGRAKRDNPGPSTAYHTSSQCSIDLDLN

SMILES | EC50 [1] | EC50 [2]
COCCOCCOCCOCCOCCOCCOCCOCCOCCOCCOc1cc(F)c(CSc2ncc(N(C)c3ccc(OC)c(OC)c3)n2-c2ccc(F)cc2)c(F)c1 | 580 nM | 29 nM
COCCOCCOCCOCCOCCOCCOCCOCCOCCOc1cc(F)c(CSc2ncc(N(C)c3ccc(OC)c(OC)c3)n2-c2ccc(F)cc2)c(F)c1 | 160 nM | 18 nM
COCCOCCOCCOCCOCCOCCOCCOCCOCCOCCOCCOCCOCCOCCOCCOCCOCCOCCOCCOCCOCCOCCOCCOCCOCCOCCOCCOCCOCCOCCOCCOCCOCCOCCOCCOCCOCCOc1cc(F)c(CSc2ncc(N(C)c3ccc(OC)c(OC)c3)n2-c2ccc(F)cc2)c(F)c1 | 1200 nM | 68 nM
COCCOCCOCCOCCOCCOCCOCCOCCOCCOCCOCCOCCOCCOCCOCCOCCOc1cc(F)c(CSc2ncc(N(C)c3ccc(OC)c(OC)c3)n2-c2ccc(F)c(OC)c2)c(F)c1 | 330 nM | 26 nM

— ChEMBL document CHEMBL5727106, “Imidazol- or 1,2,4-triazol-derivatives and their use” (2019)
